The values that follow come from publication PMC7179312 (Antimicrobial Agents and Chemotherapy, 2020).

As a reminder, the MIC is the least concentration at which growth counts as inhibited.

The subject of assay [1] is P. aeruginosa PAM1154 carrying pUCP24 vector (PAM4175). The assay can be described thus: MIC, CLSI broth microdilution. The assay is classed as cell-based. Conditions: Pseudomonas aeruginosa, drug alone. An excerpt:
The effects of KPC mutations on resistance to various antibiotics were investigated. For these studies, pUCP24 plasmids carrying wild-type and mutant blaKPC-2 genes as well as the pUCP24 vector were transformed into PAM1154, an efflux-deficient strain of Pseudomonas aeruginosa. In this host, the effect of β-lactamases on β-lactam MIC is amplified due to the slowed uptake of β-lactams across the low-permeability outer membrane without interference by efflux of either β-lactams or BLIs. Consequently, this host allows detection of β-lactamase activity (as an MIC increase) of low-catalytic-efficiency enzymes that rely heavily on the low permeability of the outer membrane. Using the strain that lacks efflux pumps ensures no interference from efflux in interpreting results. We next evaluated the steady-state protein expression levels in bacterial cells. […] The observed discrepancy with our results could be attributed to the difference in either the expression vector or host bacteria.
(§1) For microbiological studies, wild-type blaKPC-2 and its mutant variants were cloned into the shuttle vector pUCP24. Resulting plasmids were transformed in the efflux-deficient strain of P. aeruginosa PAM1154 using selection on 15 μg/ml of gentamicin. Using a strain of P. aeruginosa as opposed to E. coli as a host for various cloned genes was based on the following consideration. As well documented elsewhere ([41]), P. aeruginosa has a low-permeability outer membrane; consequently, the effect of β-lactamases on MIC is amplified in P. aeruginosa compared to that in E. coli due to the slowed uptake of β-lactams. Thus, this host is appropriate to detect β-lactamase activity (as an MIC increase) of low-catalytic-efficiency enzymes that rely heavily on low permeability of the outer membrane. […] MICs were determined using the Clinical and Laboratory Standards Institute (CLSI) broth microdilution method as described in CLSI document M07-A11 ([42]). Potentiation of antibiotic activity by various BLIs in bacterial strains carrying wild-type (WT) and mutant KPC-2 genes was performed using standard checkerboard methodology ([43]). BLI potency was defined as PV50 (PV, potentiation value). PV50 is the minimal concentration of a BLI that is required to reduce the antibiotic MIC to the middle of the MIC range (E50) where the highest MIC is the MIC for a KPC-producing strain with no inhibitor added and the lowest MIC is the MIC for the vector-only strain, corresponding to the complete inhibition of KPC. E50 is calculated as the square root of the product of the antibiotic MICs for the KPC-producing and the vector-only strains.
(Broth dilution looks for growth in wells or tubes with falling amounts of substance.)

Assay [2] deals with P. aeruginosa PAM1154 carrying KPC-2::D179Y (PAM4639). The assay can be described thus: Checkerboard potentiation of antibiotic activity by BLIs. The conditions noted are these: for increase of PV50 vs wild-type KPC-2: D179Y; for PV50: PAM4639 KPC-2::D179Y. It counts as cell-based, Pseudomonas aeruginosa.
Excerpt: (§2) BLI potency was defined as PV50 (PV, potentiation value) of antibiotic potentiation. PV50 is the concentration of a BLI that is required to reduce the antibiotic MIC to the middle of the MIC range where the highest MIC is the MIC for a KPC-producing strain with no inhibitor added and the lowest MIC is the MIC for the vector-alone strain, which corresponds to complete inhibition of KPC. As a given MIC is directly related to the β-lactamase activity, PV50 might be considered the concentration of a BLI that is required to achieve half-effect of inhibition of β-lactamase activity (in whole cells) to hydrolyze an antibiotic of interest. […] However, the accurate determination of PV50 requires the MIC range to be relatively wide.
as §1, with “Potentiation of antibiotic activity by various BLIs in bacterial strains carrying wild-type (WT) and mutant KPC-2 genes was performed using standard checkerboard methodology ([43]).” left out
(§3) […]
(§4) […]

Assay [3] concerns P. aeruginosa PAM1154 carrying KPC-2::L169P (PAM4751). The assay is described as above. It counts as cell-based, Pseudomonas aeruginosa. The conditions noted are these: for PV50: PAM4751 KPC-2::L169P.
Excerpt: as §2
as §1, with “Potentiation of antibiotic activity by various BLIs in bacterial strains carrying wild-type (WT) and mutant KPC-2 genes was performed using standard checkerboard methodology ([43]).” left out
as §3, §4

Assay [4] has as its system P. aeruginosa PAM1154 carrying wild-type KPC-2 (PAM4135). The description is as above. The assay is classed as cell-based, Pseudomonas aeruginosa. Conditions: PAM4135 KPC-2.
Excerpt: as §2
as §1, with “Potentiation of antibiotic activity by various BLIs in bacterial strains carrying wild-type (WT) and mutant KPC-2 genes was performed using standard checkerboard methodology ([43]).” left out
as §3, §4

Another assay deals with T1, KPC-2 (Klebsiella pneumoniae, UniProt Q9F663).
T1 construct: 6xHis (C); made in house; host or cells: E. coli BL21(DE3) pLys, pET28a
The assay can be described thus: Inactivation kinetics (k2/K, k−2, Kd), nitrocefin reporter substrate method. The assay is classed as biochemical. Conditions: NCF hydrolysis, 37°C. On the procedure:
Inactivation kinetic parameters were determined by reporter substrate method for the slow tight binding inhibitor kinetic scheme ([45]). Protein was quickly mixed with 100 μM nitrocefin and various concentrations of BLI in reaction buffer, and absorbance at 490 nm was measured immediately every 2 s for 600 s on a SpectraMax plate reader (Molecular Devices, San Jose, CA) at 37°C. Resulting progression curves of OD490 versus time at various BLI concentrations were imported into Prism software (GraphPad, San Diego, CA), and pseudo-first-order rate constants (kobs) were calculated using the following equation: P=Vs×(1-e^-kobs^×^t)/kobs where Vs is enzyme nitrocefin cleavage rate in the absence of BLI. kobs values calculated at various vaborbactam concentrations were fitted in the following equation: kobs=k−2+k2/K×[I]/{1+[NCF]/Km(NCF)} where k2/K is the inactivation constant, [I] is inhibitor concentration, [NCF] is nitrocefin concentration, and Km(NCF) is the Michaelis constant of nitrocefin for KPC-2.

The next assay has as its target T2, KPC-2 D179Y (Klebsiella pneumoniae, UniProt Q9F663, D178Y).
T2 construct: 6xHis (C); made in house; host or cells: E. coli BL21(DE3) pLys, pET28a
The conditions noted are these: D179Y substitution in KPC-2; cited from earlier work.

The structures appear in SMILES notation.

T2 sequence (Q9F663 25-293 D178Y): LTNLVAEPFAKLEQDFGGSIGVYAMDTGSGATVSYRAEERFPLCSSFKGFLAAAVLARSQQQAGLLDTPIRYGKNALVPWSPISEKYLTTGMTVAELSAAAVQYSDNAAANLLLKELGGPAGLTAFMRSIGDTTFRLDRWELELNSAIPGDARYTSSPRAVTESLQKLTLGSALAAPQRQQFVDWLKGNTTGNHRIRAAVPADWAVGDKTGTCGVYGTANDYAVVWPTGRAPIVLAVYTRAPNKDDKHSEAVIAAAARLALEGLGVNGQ
T1 sequence (Q9F663 25-293 limits assumed): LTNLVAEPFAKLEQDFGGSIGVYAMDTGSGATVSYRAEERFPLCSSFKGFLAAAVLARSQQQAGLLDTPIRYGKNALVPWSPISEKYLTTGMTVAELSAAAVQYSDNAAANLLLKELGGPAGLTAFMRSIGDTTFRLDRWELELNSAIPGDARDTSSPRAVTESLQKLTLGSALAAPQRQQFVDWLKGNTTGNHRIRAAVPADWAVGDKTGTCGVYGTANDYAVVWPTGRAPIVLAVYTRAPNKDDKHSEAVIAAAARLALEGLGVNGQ

As to `NC(=O)[C@@H]1CC[C@@H]2CN1C(=O)N2OS(=O)(=O)O` [Avibactam, avibactam], the MIC in assay [1] stood at 128 µg/mL. In addition, the “increase of PV50 vs wild-type KPC-2” value is listed as 16 fold in assay [2] (cefepime); 32 fold in assay [2] (ceftazidime); 4 fold in assay [2] (piperacillin); 4 fold in assay [3] (L169P, cefepime). The PV50 came to 4 µg/mL in assay [2] (potentiation of cefepime); 4 µg/mL in assay [2] (potentiation of ceftazidime); 1 µg/mL in assay [2] (potentiation of piperacillin); 1 µg/mL in assay [3] (potentiation of cefepime); 2 µg/mL in assay [3] (potentiation of ceftazidime); 2 µg/mL in assay [3] (potentiation of piperacillin). Further, the PV50 was 0.25 µg/mL in assay [4] (potentiation of cefepime) and 0.125 µg/mL in assay [4] (potentiation of ceftazidime). Besides, the “k−2” value on KPC-2 was 3.3 ± 0.1 × 10^−4 s^−1. For the same compound, the “decrease in the inactivation constant k2/K” value on KPC-2 D179Y is 70,000 fold.
